Values of other authors, collected in US7968723B2, “Compounds, their preparation and use” (High Point Pharmaceuticals, LLC, priority 2004, dated 2011).

Experiments:
[1] = system: high fat diet induced Insulin resistant mice and diabetic ob/ob; conditions: PNAS 2003, 100, 15924-15929
C2C12 muscle cells = conditions: in vitro treatment of C2C12 muscle cells; BioChem. Biophys. Acta 2003, 1633, 43-50; Mol. Endocrin. 2003, 17, 2477-2493

Compound: Cc1cc(SCc2sc(-c3ccc(C(F)(F)F)cc3)nc2C)ccc1OCC(=O)O [GW501516]
- insulin sensitivity [1]: improved insulin sensitivity
- plasma glucose and insulin [1]: lowering of plasma glucose and insulin
- regulation of genes (TG hydrolysis, FFA oxidation, lipid utilization, energy expenditure, lipid efflux) (C2C12 muscle cells): regulation of genes involved with TG hydrolysis and FFA oxidation
